From patent US9879029B2, “ERK inhibitors” (Eli Lilly and Company, priority 2014, dated 2018) come the findings set out here.

The structures appear in SMILES notation.

In this assay the test system is human pancreatic cancer cells MIA PACA-2. The experiment in a line: Xenograft tumor model MIA PACA-2. Type of assay: in vivo, female CB-17 SCID mice. To be noted: oral, p <0.001. How it is done:
The purpose of this assay is to measure reduction in tumor volume in response to test compound administration. Expand human colorectal cancer cells HCT116 (ATCC, #CCL-247) or human non-small cell lung cancer cells NCI-H358 (ATCC, # CRL-5807) in culture, harvest and inject 5×10e^6 cells in 200 μL of 1:1 HBSS+matrigel solution subcutaneously on to the rear right flank of female athymic nude mice (22-25 gm, Harlan Laboratories). Expand human pancreatic cancer cells SW1990 (ATCC, # CRL-2172) in culture, harvest and inject 2×10e^6 cells in 200 μL of 1:1 HBSS+matrigel solution subcutaneously on to the rear right flank of female athymic nude mice (22-25 gm, Harlan Laboratories). Expand human pancreatic cancer cells MIA PACA-2 (ATCC, # CRL-1420) or human non-small cell lung cancer cells A549 (ATCC, # CCl-185) in culture, harvest and inject 5×10e^6 cells in 200 μL of 1:1 HBSS+matrigel solution subcutaneously on to the rear right flank of female CB-17 SCID mice (22-25 gm, Charles River Laboratories International Inc.). Expand human melanoma cells A-375 (ATCC, # CRL-1619) in culture, harvest and inject 5×10e^6 cells in 200 μL of 1:1 HBSS+matrigel solution subcutaneously on to the rear right flank of female NIH nude rats (140-160 gm, Taconic Farms). Measure tumor growth and body weight twice per week beginning the seventh day after the implantation. When tumor sizes reach 200-400 mm^3, randomize animals and group into groups of eight to ten animals. Prepare test compound in an appropriate vehicle (vehicle: 1% HEC/0.25% Tween 80/0.05% Antifoam) and administer by oral gavage for 14 to 28 days. Tumor response is determined by tumor volume measurement performed twice a week during the course of treatment.

Take `COCCN1C(=O)c2cc(-c3ccnc(Nc4ccnn4C)c3)sc2C1(C)C` [Example 1, 5-(2-Methoxyethyl)-6,6-dimethyl-2-{2-[(1-methyl-1H-pyrazol-5-yl)amino]pyridin-4-yl}-5,6-dihydro-4H-thieno[2,3-c]pyrrol-4-one]: the “Delta T/C (%)” value (MIA PACA-2, 10 mg/kg BID) is given as 76%; the “Delta T/C (%)” value (MIA PACA-2, 25 mg/kg QD) came to 74%; the “Delta T/C (%)” value (MIA PACA-2, 50 mg/kg QD) came out at 97%. The “Regression (%)” value is on record as −15% (MIA PACA-2, 25 mg/kg BID); −72% (MIA PACA-2, 50 mg/kg BID); −39% (MIA PACA-2, 75 mg/kg QD).
